From patent US12037344B2, “NLRP3 modulators” (INNATE TUMOR IMMUNITY, INC., priority 2018, dated 2024)
pEC50: −log10 of the molar value. Read-outs that look alike come from different tables or passages of the source.

Columns and labels:
TLR7 = molecular target: T1, TLR7 (Homo sapiens, UniProt Q9NYK1); test: In vitro human TLR7 binding reporter assay (HEK-Blue, NF-kB/AP1-inducible SEAP); format: cell-based; conditions: read-out: TLR7 Agonist EC50
T1 construct: human HEK-Blue cells co-expressing a TLR7 or TLR8 gene
T1 sequence (Q9NYK1 27-1049): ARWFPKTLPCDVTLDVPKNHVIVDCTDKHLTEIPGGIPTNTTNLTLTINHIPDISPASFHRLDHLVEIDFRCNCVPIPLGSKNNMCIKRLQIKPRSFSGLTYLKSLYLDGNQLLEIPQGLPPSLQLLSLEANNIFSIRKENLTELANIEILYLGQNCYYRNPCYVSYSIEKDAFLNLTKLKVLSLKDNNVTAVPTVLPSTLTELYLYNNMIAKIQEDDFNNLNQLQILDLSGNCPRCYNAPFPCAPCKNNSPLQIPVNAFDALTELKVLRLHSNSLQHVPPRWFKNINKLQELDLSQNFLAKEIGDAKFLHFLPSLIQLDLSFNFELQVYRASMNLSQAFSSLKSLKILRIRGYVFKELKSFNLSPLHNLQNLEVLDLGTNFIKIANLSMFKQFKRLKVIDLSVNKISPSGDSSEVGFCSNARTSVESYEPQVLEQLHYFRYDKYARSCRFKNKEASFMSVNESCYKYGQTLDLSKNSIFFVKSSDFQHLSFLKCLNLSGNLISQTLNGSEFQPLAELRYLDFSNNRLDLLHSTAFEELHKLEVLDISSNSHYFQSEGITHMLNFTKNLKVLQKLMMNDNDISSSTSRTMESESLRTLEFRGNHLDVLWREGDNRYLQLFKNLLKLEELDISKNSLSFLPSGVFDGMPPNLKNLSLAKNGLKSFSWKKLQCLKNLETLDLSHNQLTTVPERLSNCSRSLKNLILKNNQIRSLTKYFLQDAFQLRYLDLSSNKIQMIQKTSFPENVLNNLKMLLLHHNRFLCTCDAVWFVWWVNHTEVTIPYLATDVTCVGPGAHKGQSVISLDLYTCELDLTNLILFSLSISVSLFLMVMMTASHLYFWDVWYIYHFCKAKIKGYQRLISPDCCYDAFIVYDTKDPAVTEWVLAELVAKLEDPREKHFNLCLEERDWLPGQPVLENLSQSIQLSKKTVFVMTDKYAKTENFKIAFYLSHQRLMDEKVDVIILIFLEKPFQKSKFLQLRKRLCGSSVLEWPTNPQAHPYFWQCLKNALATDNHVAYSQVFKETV
Outline: (§1)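 Cells are seeded and grown for 24 h. Compounds or DMSO are then added and incubated 18 h at 37 °C. Quanti-Blue is added, and SEAP is read after thirty minutes. EC50 values are normalized, with RLU from 50 μM reference standard setting 100% Ymax.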

TLR8 = molecular target: T2, TLR8 (Homo sapiens, UniProt Q9NR97); test: In vitro human TLR8 binding reporter assay (HEK-Blue, NF-kB/AP1-inducible SEAP); format: cell-based; conditions: read-out: TLR8 Agonist EC50
T2 construct: human HEK-Blue cells co-expressing a TLR7 or TLR8 gene
T2 sequence (Q9NR97 27-1041): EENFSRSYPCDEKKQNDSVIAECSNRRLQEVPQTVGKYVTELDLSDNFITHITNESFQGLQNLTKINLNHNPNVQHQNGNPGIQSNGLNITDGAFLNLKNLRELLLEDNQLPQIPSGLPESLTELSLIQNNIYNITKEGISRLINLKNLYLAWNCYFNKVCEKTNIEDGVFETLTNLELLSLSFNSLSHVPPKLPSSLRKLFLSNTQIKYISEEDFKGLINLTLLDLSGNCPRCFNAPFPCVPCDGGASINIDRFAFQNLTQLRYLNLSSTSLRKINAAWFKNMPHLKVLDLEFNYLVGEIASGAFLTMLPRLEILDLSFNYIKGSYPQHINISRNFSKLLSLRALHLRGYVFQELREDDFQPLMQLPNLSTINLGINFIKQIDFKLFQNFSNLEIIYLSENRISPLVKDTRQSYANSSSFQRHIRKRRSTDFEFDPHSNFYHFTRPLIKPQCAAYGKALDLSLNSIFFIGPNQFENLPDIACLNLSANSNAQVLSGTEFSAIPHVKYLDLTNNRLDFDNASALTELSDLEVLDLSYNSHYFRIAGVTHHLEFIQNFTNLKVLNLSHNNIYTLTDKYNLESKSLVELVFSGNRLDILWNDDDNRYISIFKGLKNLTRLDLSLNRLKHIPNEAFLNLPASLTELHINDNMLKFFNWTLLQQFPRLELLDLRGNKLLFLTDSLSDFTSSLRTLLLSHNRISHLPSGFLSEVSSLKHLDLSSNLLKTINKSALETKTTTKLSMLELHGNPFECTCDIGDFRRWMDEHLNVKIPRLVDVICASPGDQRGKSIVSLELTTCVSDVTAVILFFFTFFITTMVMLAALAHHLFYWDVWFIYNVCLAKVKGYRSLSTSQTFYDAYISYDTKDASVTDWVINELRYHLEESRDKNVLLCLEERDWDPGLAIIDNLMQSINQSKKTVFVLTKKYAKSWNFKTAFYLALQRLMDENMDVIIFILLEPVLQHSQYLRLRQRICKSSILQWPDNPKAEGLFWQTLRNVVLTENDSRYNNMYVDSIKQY
Outline: as §1

THP-1 cells = test: Measurement of IL-1β production, hTRF protocol (second alternative procedure), THP-1 cells; format: cell-based, human; conditions: Homo sapiens
Outline: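 THP-1 cells differentiated overnight with 50 ng/ml PMA, then plated at 50,000 cells/well in RPMI with 2% FBS onto serial compound dilutions (top final concentration 10 μM) for 2 hours at 37° C. Supernatant IL-1β measured by hTRF (antibodies at 1:40, overnight at 4° C), read at 665/615 nm against a standard curve.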

[1] = THP-1, IL-1β production, human, read-out: NLRP3 hILIB EC50
[2] = THP-1, IL-1β production, human cells, read-out: NLRP3 hILIB EC50

`CC(=O)NC(C)(C)Cn1cc2c(N)nc3cc(-c4ccn[nH]4)ccc3c2n1` [Example 256] was tested, and the pEC50 (TLR7; activity range class) was less than 4.00, the pEC50 (TLR8; activity range class) was less than 4.00 and the pEC50 (THP-1 cells; [1]) was 6.28.
Compound `Nc1nc2cc(-c3cc[nH]n3)ccc2c2c1cnn2CCCN1CCOCC1` [Example 214] has a pEC50 (TLR7; activity range class) of less than 4.00, a pEC50 (TLR8; activity range class) of less than 4.00 and a pEC50 (THP-1 cells; [1]) of 5.34.
`Cc1nc(C(=O)NCCc2cc3c(N)nc4cc(-c5cc[nH]n5)ccc4c3[nH]2)co1` [Example 493] was tested, and the pEC50 (TLR7; activity range) was less than 4.00, the pEC50 (TLR8; activity range) was less than 4.00 and the pEC50 (THP-1 cells; [2]) was 6.74.
`Nc1nc2cc(-c3ccn[nH]3)ccc2c2nn(CC3(C(=O)NCc4ccccn4)CC3)cc12` [Example 605] was tested, and the pEC50 (TLR7; activity range) was less than 4.00, the pEC50 (TLR8; activity range) was less than 4.00 and the pEC50 (THP-1 cells; [2]) was 4.65.
`Nc1nc2cc(-c3cc[nH]n3)ccc2c2cn(CCN3Cc4ccc(F)cc4C3=O)nc12` [Example 103, 2-{2-[4-amino-7-(1H-pyrazol-3-yl)-2H-pyrazolo[3,4-c]quinolin-2-yl]ethyl}-6-fluoro-2,3-dihydro-1H-isoindol-1-one] was tested, and the pEC50 (TLR7; activity range class) was less than 4.00, the pEC50 (TLR8; activity range class) was less than 4.00 and the pEC50 (THP-1 cells; [1]) was 6.19.
For `CO[C@H](CO)Cn1cc2c(N)nc3cc(-c4cc[nH]n4)ccc3c2n1` [Example 489], the pEC50 (TLR7; activity range) was less than 4.00, the pEC50 (TLR8; activity range) was less than 4.00 and the pEC50 (THP-1 cells; [2]) was 6.11.
`N#CCCn1cc2c(N)nc3cc(-n4cccn4)ccc3c2n1` [Example 557] gave a pEC50 (TLR7; activity range) of less than 4.00, a pEC50 (TLR8; activity range) of less than 4.00 and a pEC50 (THP-1 cells; [2]) of 6.38.
`CN(C)C(=O)NCCn1cc2c(n1)c(N)nc1cc(-c3cc[nH]n3)ccc12` [Example 116, 1-{2-[4-amino-7-(1H-pyrazol-3-yl)-2H-pyrazolo[3,4-c]quinolin-2-yl]ethyl}-3,3-dimethylurea] was tested, and the pEC50 (TLR7; activity range class) was less than 4.00, the pEC50 (TLR8; activity range class) was less than 4.00 and the pEC50 (THP-1 cells; THP-1, read-out: NLRP3 hILIB EC50) was 5.13.
`Nc1nc2cc(-c3cc[nH]n3)ccc2c2[nH]c(CN[C@H]3CCOC3)c(Cl)c12` [Example 487] showed a pEC50 (TLR7; activity range) of less than 4.00, a pEC50 (TLR8; activity range) of less than 4.00 and a pEC50 (THP-1 cells; [2]) of 6.43.
`Nc1nc2cc(-n3cccn3)ccc2c2c1cnn2CCCO` [Example 252, 3-(4-amino-7-(1H-pyrazol-1-yl)-1H-pyrazolo[4,3-c]quinolin-1-yl)propan-1-ol] was tested, and the pEC50 (TLR7; activity range class) was less than 4.00, the pEC50 (TLR8; activity range class) was less than 4.00 and the pEC50 (THP-1 cells; [1]) was 5.95.
With `Nc1nc2cc(-c3cc[nH]n3)ccc2c2cn(CCN3CC4COCC4C3)nc12` (stereo not drawn) [Example 30, 2-(2-{hexahydro-1H-furo[3,4-c]pyrrol-5-yl}ethyl)-7-(1H-pyrazol-3-yl)-2H-pyrazolo[3,4-c]quinolin-4-amine] the pEC50 (TLR7; activity range class) was less than 4.00, the pEC50 (TLR8; activity range class) was less than 4.00 and the pEC50 (THP-1 cells; [1]) was 6.11.
For `COc1ccc(C(=O)NCCn2cc3c(n2)c(N)nc2cc(-c4cc[nH]n4)ccc23)nn1` [Example 51], the pEC50 (TLR7; activity range class) was less than 4.00, the pEC50 (TLR8; activity range class) was less than 4.00 and the pEC50 (THP-1 cells; [1]) was 4.73.
`CC(C)(C)OCC(O)Cn1cc2c(N)nc3cc(-c4cc[nH]n4)ccc3c2n1` (stereo not drawn) [Example 375] showed a pEC50 (TLR7; activity range class) of less than 4.00, a pEC50 (TLR8; activity range class) of less than 4.00 and a pEC50 (THP-1 cells; [1]) of 5.39.
With `COc1ccc(C(=O)NCCn2cc3c(n2)c(N)nc2cc(-c4cc[nH]n4)ccc23)cc1` [Example 40] the pEC50 (TLR7; activity range class) was less than 4.00, the pEC50 (TLR8; activity range class) was less than 4.00 and the pEC50 (THP-1 cells; [1]) was 6.11.
With `Nc1nc2cc(-c3cc[nH]n3)ccc2c2nn(C[C@H]3CCCO3)cc12` [Example 329] the pEC50 (TLR7; activity range class) was less than 4.00, the pEC50 (TLR8; activity range class) was less than 4.00 and the pEC50 (THP-1 cells; [1]) was 6.51.
